Data published in patent US6756526B2, “Drought tolerant plants and methods of increasing drought tolerance in plants” (Kansas State University Research Foundation, priority 2001, dated 2004).
Entries after “also recorded” stand apart in the source; their conditions may differ.

How the values were obtained:
PLD = details: tissues or guard cells treated with ABA; cited from earlier work
[1] = system: wild-type Arabidopsis leaves; test: Stomatal closure measured as diffusion resistance (steady state porometer) in detached leaves incubated with ABA; format: in vivo, Arabidopsis thaliana
Protocol: (§1) The depletion of PLDα in guard cells provides a means of assessing the role of PLD in stomatal movement. Stomatal closure was determined by measuring diffusion resistance using a steady-state porometer. Briefly, detached Arabidopsis leaves were floated with the abaxial side downward in a solution containing 5 mM MES-KOH (pH 6.1), 22 mM KCl, and 1 mM CaCl2 for 1 hour under the same light conditions used for growing plants. Leaves then were incubated without or with ABA at indicated concentrations. ABA was made as a 10 mM stock solution in 5% dimethyl sulfoxide (DMSO), and the same amount of DMSO (0.005%) was also added to the control solution in all treatments. Stomatal aperture of detached leaves was measured as diffusion resistance with a steady state porometer using the method of Thimann and S. O. Satler, Relation Between Leaf Senescence and Stomatal Closure: Senescence in Light, 76 Proc. Natl. Acad. Sci. USA, 2295-2298 (1979). For tobacco plants, leaf diffusion resistance was also measured in leaves attached to approximately 2-month-old plants following foliar spraying of ABA at indicated concentrations. Changes in diffusion resistance in response to ABA in both detached and intact leaves were monitored at indicated time intervals. Before drought treatment was imposed, Arabidopsis plants were grown in a greenhouse for 6-8 weeks and watered regularly. Soil water content in each pot was adjusted to approximately the same level before drought treatment. Plants were subjected to drought by withholding irrigation and the soil surface in each pot was covered with plastic wraps to minimize evaporation. Soil moisture in the 0-20 cm soil layer was monitored during drought using a time domain reflectometer. When ABA (10 μM) was sprayed on plants in some treatments, control groups of plants were sprayed with water in the same amount as for the ABA treatment. Leaves were collected at various times of drought treatment, and leaf water potential (ψw) was measured with a thermocouple psychrometer.
(§2) Detached Arabidopsis leaves were floated with the abaxial side downward in a solution containing 5 mM MES-KOH (pH 6.1), 22 mM KCl, and 1 mM CaCl2 for 1 hour under the same light conditions used for growing plants. Leaves then were incubated without or with ABA at indicated concentrations. ABA was made as a 10 mM stock solution in 5% dimethyl sulfoxide (DMSO), and the same amount of DMSO (0.005%) was also added to the control solution in all treatments. Stomatal aperture was measured as diffusion resistance with a steady state porometer (Li-COR 1600, Lincoln, Nebr.). The porometer was set for aperture of 0.5 cm^2, pressure of 100 pa, and relative humidity of 30%. Changes in diffusion resistance were monitored on plants at indicated time intervals.

[2] = system: PLDα-depleted (antisense) Arabidopsis leaves; test: as above; format: in vivo, Arabidopsis thaliana; details: PLDα-suppressed leaves
Protocol: as §1, §2

[3] = system: control tobacco plants (empty vector); test: Leaf diffusion resistance measured directly on plants after foliar ABA spray; format: in vivo, Nicotiana tabacum; details: 2.5 and 5 μM ABA sprayed, 20 minutes after application, relative to plants sprayed with water
Protocol: as §1, with “Before drought treatment was imposed, Arabidopsis plants were grown in a greenhouse for 6-8 weeks and watered regularly. Soil water content in each pot was adjusted to approximately the same level before drought treatment. Plants were subjected to drought by withholding irrigation and the soil surface in each pot was covered with plastic wraps to minimize evaporation.” left out, “When ABA (10 μM) was sprayed on plants in some treatments, control groups of plants were sprayed with water in the same amount as for the ABA treatment. Leaves were collected at various times of drought treatment, and leaf water potential (ψw) was measured with a thermocouple psychrometer.” left out

[4] = system: PLDα-deficient Arabidopsis plants; test: Progressive drought by withholding irrigation, with ABA spray; format: in vivo, Arabidopsis thaliana; details: ABA 10 μM sprayed once a day, PLDα-deficient plants under drought
Protocol: as §1, with “Before drought treatment was imposed, Arabidopsis plants were grown in a greenhouse for 6-8 weeks and watered regularly. Soil water content in each pot was adjusted to approximately the same level before drought treatment. Plants were subjected to drought by withholding irrigation and the soil surface in each pot was covered with plastic wraps to minimize evaporation.” left out, “When ABA (10 μM) was sprayed on plants in some treatments, control groups of plants were sprayed with water in the same amount as for the ABA treatment. Leaves were collected at various times of drought treatment, and leaf water potential (ψw) was measured with a thermocouple psychrometer.” left out

[5] = system: wild-type Arabidopsis plants; test: as above; format: in vivo, Arabidopsis thaliana; details: ABA 10 μM sprayed once a day, wild-type plants under drought
Protocol: as §1, with “Before drought treatment was imposed, Arabidopsis plants were grown in a greenhouse for 6-8 weeks and watered regularly. Soil water content in each pot was adjusted to approximately the same level before drought treatment. Plants were subjected to drought by withholding irrigation and the soil surface in each pot was covered with plastic wraps to minimize evaporation.” left out, “When ABA (10 μM) was sprayed on plants in some treatments, control groups of plants were sprayed with water in the same amount as for the ABA treatment. Leaves were collected at various times of drought treatment, and leaf water potential (ψw) was measured with a thermocouple psychrometer.” left out

[6] = system: protoplasts of barley aleurone and Vicia faba guard cells; details: cited from earlier work
guard cell protoplasts = details: PA applied to guard cell protoplasts; cited from earlier work

Compound	PLD activity (and gene expression) after ABA (PLD)	effect on stomatal closure ([1]; 2 μM ABA, wild-type leaves)	increase in diffusion resistance (stomatal closure) ([1]; 10 μM ABA, detached wild-type leaves)	persistence of the ABA effect on diffusion resistance ([1]; 10 μM ABA, wild-type)	effect on stomatal closure ([2]; 2 μM ABA)	ABA-induced increase in diffusion resistance, relative to that observed in wild-type leaves ([2]; 10 μM ABA)	ABA concentration at which diffusion resistance reached a plateau ([2]; 0.5-50 μM ABA tested, 20 minutes) [µM]	increase in leaf diffusion resistance [3]	effect on water loss and drought resistance [4]	effect on drought resistance (leaf turgidity, leaf water potential, soil water content) [5]	effect of PA addition compared with ABA [6]	ionic efflux (guard cell protoplasts)
CC1=CC(=O)CC(C)(C)[C@@]1(O)/C=C/C(C)=C\C(=O)O [ABA, abscisic acid]	increased; also recorded: increases PLD activity	stimulated stomatal closure	approximately twofold	more than 30 minutes	no effect	approximately 50%	> 50	about 30%	no detectable effect	enhanced resistance to drought; also recorded: improves this drought resistance		
phosphatidic acid [PA]											partially mimicked the effect of ABA	increase in ionic efflux
